# In US9695155B2, “Herbicidal substituted pyrimidinyloxy benzene compounds” (E. I. DU PONT DE NEMOURS AND COMPANY, priority 2013, dated 2017):
# Key:
# barnyardgrass [1] = assay: Test B flooded paddy test; format: in vivo, Echinochloa crus-galli; conditions: Flood, 250 g ai/ha, 0 to 100 scale where 0 is no effect and 100 is complete control
# Procedure, shortened: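 Greenhouse flooded-pot test: compounds dosed into 3 cm standing water over 2-leaf plants, flood held constant. Rated visually after 13–15 days on 0–100 (complete control = 100); a dash marks no test result.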
# barnyardgrass [2] = assay: Test A preemergence; format: in vivo, Echinochloa crus-galli
# Procedure, shortened: (§1)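 Injury scores run from 0, no effect, to 100, complete control, judged by eye against untreated plants roughly 10 days after treatment. Chemicals carried a surfactant in a non-phytotoxic solvent and went onto loam–sand soil preemergence or onto one- to two-leaf seedlings postemergence.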
# morningglory = assay: Test A preemergence; format: in vivo, Ipomoea spp.
# Procedure, shortened: as §1
# wheat = assay: Test A preemergence; format: in vivo, Triticum aestivum
# Procedure, shortened: as §1
# velvetleaf = assay: Test A preemergence; format: in vivo, Abutilon theophrasti
# Procedure, shortened: as §1
# chickweed = assay: Test C postemergence; format: in vivo, Stellaria media
# Procedure, shortened: (§2)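 Sown in loam/sand → sprayed pre-emergence; or grown to 1–4 leaves in peat mix → sprayed post-emergence. Same solvent/surfactant formulation both ways. Greenhouse 13–15 d. Score 0–100 visual.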
# corn = assay: Test A postemergence; format: in vivo, Zea mays
# Procedure, shortened: as §1
# large (Lg) crabgrass = assay: Test C preemergence; format: in vivo, Digitaria sanguinalis
# Procedure, shortened: as §2
# oilseed rape = assay: Test C preemergence; format: in vivo, Brassica napus
# Procedure, shortened: as §2
# wild oat = assay: Test C postemergence; format: in vivo, Avena fatua
# Procedure, shortened: as §2
# galium = assay: Test C preemergence; format: in vivo, Galium aparine
# Procedure, shortened: as §2
# Italian ryegrass = assay: Test C preemergence; format: in vivo, Lolium multiflorum
# Procedure, shortened: as §2
# soybean = assay: Test C preemergence; format: in vivo, Glycine max
# Procedure, shortened: as §2
# barnyardgrass [3] = assay: Test C preemergence; format: in vivo, Echinochloa crus-galli
# Procedure, shortened: as §2
# [4] = 125 g ai/ha, 0 to 100 scale where 0 is no effect and 100 is complete control
# [5] = 1000 g ai/ha, 0 to 100 scale, 0 no effect, 100 complete control
# [6] = 1000 g ai/ha, 0 to 100 scale, 0 no effect, 100 complete control, approx. 10 days
# [7] = 16 g ai/ha, postemergence, 0 is no effect, 100 is complete control
# [8] = 125 g ai/ha, postemergence, visual rating, scale 0 to 100 (0 no effect, 100 complete control)
# [9] = Postemergence, 62 g ai/ha, scale 0 to 100 (0 no effect, 100 complete control)
# [10] = 16 g ai/ha, preemergence, scale 0 to 100 (0 no effect, 100 complete control)
# [11] = 62 g ai/ha, preemergence, scale 0 (no effect) to 100 (complete control)
# [12] = 125 g ai/ha, preemergence, scale 0 (no effect) to 100 (complete control)
# [13] = Preemergence, 31 g ai/ha, scale 0 to 100, 0 no effect, 100 complete control
smiles,measurement,setting,value
"N#Cc1cccc(Oc2ncc(Cl)cn2)c1-n1cc(C(F)(F)F)cn1 [Compound 58, 3-[(5-chloro-2-pyrimidinyl)oxy]-2-[4-(trifluoromethyl)-1H-pyrazol-1-yl]benzonitrile]",pest or weed control at 250 g/ha,"barnyardgrass [1]; Echinochloa crus-galli, read-out: Plant response rating, Barnyardgrass",80%
same,pest or weed control at 125 g/ha,"barnyardgrass [2]; Echinochloa crus-galli, pre-emergence, 240 h, 125 g ai/ha, 0 to 100 scale where 0 is no effect and 100 is complete control, read-out: Plant response rating, Barnyardgrass",100%
same,pest or weed control at 500 g/ha,"barnyardgrass [2]; Echinochloa crus-galli, pre-emergence, 240 h, 500 g ai/ha, 0 to 100 scale, 0 no effect, 100 complete control, approx. 10 days, read-out: Barnyardgrass plant response rating",100%
same,"Plant response rating, Morningglory",morningglory; [4],100
same,pest or weed control at 500 g/ha,"morningglory; Ipomoea, pre-emergence, 240 h, 500 g ai/ha, 0 to 100 scale, 0 no effect, 100 complete control, approx. 10 days, read-out: Morningglory plant response rating",100%
same,"Plant response rating, Wheat",wheat; [4],60
same,plant injury at 500 g/ha,"wheat; Triticum aestivum, pre-emergence, 240 h, 500 g ai/ha, 0 to 100 scale, 0 no effect, 100 complete control, approx. 10 days, read-out: Wheat plant response rating",90%
same,"Plant response rating, Velvetleaf",velvetleaf; [4],90
same,pest or weed control at 500 g/ha,"velvetleaf; Abutilon theophrasti, pre-emergence, 240 h, 500 g ai/ha, 0 to 100 scale, 0 no effect, 100 complete control, approx. 10 days, read-out: Velvetleaf plant response rating",100%
same,pest or weed control at 125 g/ha,"chickweed; Stellaria media, post-emergence, 125 g ai/ha, postemergence, read-out: Plant response rating (0 to 100), Chickweed",100%
same,pest or weed control at 250 g/ha,"chickweed; Stellaria media, post-emergence, 250 g ai/ha, postemergence, read-out: Plant response rating (0 to 100), Chickweed",100%
same,pest or weed control at 31 g/ha,"chickweed; Stellaria media, post-emergence, Postemergence, 31 g ai/ha, scale 0 to 100 (0 no effect, 100 complete control), 13 to 15 days, read-out: Plant response rating, Chickweed",95%
same,pest or weed control at 62 g/ha,"chickweed; Stellaria media, post-emergence, Postemergence, 62 g ai/ha, scale 0 to 100 (0 no effect, 100 complete control), read-out: Plant response rating, Chickweed",95%
same,"Corn plant response rating (crop injury, 0 = no effect, 100 = complete kill) at 125 g/ha","corn; Zea mays, post-emergence, 240 h, 125 g ai/ha, 0 to 100 scale where 0 is no effect and 100 is complete control",100%
same,plant injury at 500 g/ha,"corn; Zea mays, post-emergence, 240 h, 500 g ai/ha, 0 to 100 scale, 0 no effect, 100 complete control, read-out: Plant response rating Corn",100%
same,pest or weed control at 62 g/ha,"large (Lg) crabgrass; Digitaria sanguinalis, pre-emergence, 62 g ai/ha, preemergence, scale 0 (no effect) to 100 (complete control), read-out: Crabgrass, Large plant response rating",100%
same,pest or weed control at 125 g/ha,"large (Lg) crabgrass; Digitaria sanguinalis, pre-emergence, 125 g ai/ha, preemergence, scale 0 (no effect) to 100 (complete control), read-out: Crabgrass, Large plant response rating",100%
same,pest or weed control at 250 g/ha,"large (Lg) crabgrass; Digitaria sanguinalis, pre-emergence, 250 g ai/ha, preemergence, scale 0 (no effect) to 100 (complete control), read-out: Crabgrass, Large plant response rating",100%
same,pest or weed control at 31 g/ha,"large (Lg) crabgrass; Digitaria sanguinalis, pre-emergence, Preemergence, 31 g ai/ha, scale 0 to 100, 0 no effect, 100 complete control, read-out: Plant response rating, Crabgrass, Large",100%
same,plant injury at 62 g/ha,"oilseed rape; Brassica napus, pre-emergence, 62 g ai/ha, preemergence, scale 0 (no effect) to 100 (complete control), read-out: Oilseed Rape plant response rating",100%
same,plant injury at 125 g/ha,"oilseed rape; Brassica napus, pre-emergence, 125 g ai/ha, preemergence, scale 0 (no effect) to 100 (complete control), read-out: Oilseed Rape plant response rating",100%
same,plant injury at 250 g/ha,"oilseed rape; Brassica napus, pre-emergence, 250 g ai/ha, preemergence, scale 0 (no effect) to 100 (complete control), read-out: Oilseed Rape plant response rating",100%
same,plant injury at 31 g/ha,"oilseed rape; Brassica napus, pre-emergence, Preemergence, 31 g ai/ha, scale 0 to 100, 0 no effect, 100 complete control, read-out: Plant response rating, Oilseed Rape",100%
same,pest or weed control at 125 g/ha,"wild oat; Avena fatua, post-emergence, 125 g ai/ha, postemergence, read-out: Plant response rating (0 to 100), Oat, Wild",45%
same,pest or weed control at 250 g/ha,"wild oat; Avena fatua, post-emergence, 250 g ai/ha, postemergence, read-out: Plant response rating (0 to 100), Oat, Wild",55%
same,pest or weed control at 31 g/ha,"wild oat; Avena fatua, post-emergence, Postemergence, 31 g ai/ha, scale 0 to 100 (0 no effect, 100 complete control), 13 to 15 days, read-out: Plant response rating, Oat, Wild",35%
same,pest or weed control at 62 g/ha,"wild oat; Avena fatua, post-emergence, Postemergence, 62 g ai/ha, scale 0 to 100 (0 no effect, 100 complete control), read-out: Plant response rating, Oat, Wild",40%
same,pest or weed control at 62 g/ha,"galium; Galium, pre-emergence, 62 g ai/ha, preemergence, scale 0 (no effect) to 100 (complete control), read-out: Galium plant response rating",100%
same,pest or weed control at 125 g/ha,"galium; Galium, pre-emergence, 125 g ai/ha, preemergence, scale 0 (no effect) to 100 (complete control), read-out: Galium plant response rating",100%
same,pest or weed control at 250 g/ha,"galium; Galium, pre-emergence, 250 g ai/ha, preemergence, scale 0 (no effect) to 100 (complete control), read-out: Galium plant response rating",100%
same,pest or weed control at 31 g/ha,"galium; Galium, pre-emergence, Preemergence, 31 g ai/ha, scale 0 to 100, 0 no effect, 100 complete control, read-out: Plant response rating, Galium",100%
same,pest or weed control at 62 g/ha,"Italian ryegrass; Lolium multiflorum, pre-emergence, 62 g ai/ha, preemergence, scale 0 (no effect) to 100 (complete control), read-out: Ryegrass, Italian plant response rating",90%
same,pest or weed control at 125 g/ha,"Italian ryegrass; Lolium multiflorum, pre-emergence, 125 g ai/ha, preemergence, scale 0 (no effect) to 100 (complete control), read-out: Ryegrass, Italian plant response rating",90%
same,pest or weed control at 250 g/ha,"Italian ryegrass; Lolium multiflorum, pre-emergence, 250 g ai/ha, preemergence, scale 0 (no effect) to 100 (complete control), read-out: Ryegrass, Italian plant response rating",90%
same,pest or weed control at 31 g/ha,"Italian ryegrass; Lolium multiflorum, pre-emergence, Preemergence, 31 g ai/ha, scale 0 to 100, 0 no effect, 100 complete control, read-out: Plant response rating, Ryegrass, Italian",90%
same,plant injury at 62 g/ha,"soybean; Glycine max, pre-emergence, 62 g ai/ha, preemergence, scale 0 (no effect) to 100 (complete control), read-out: Soybean plant response rating",95%
same,plant injury at 125 g/ha,"soybean; Glycine max, pre-emergence, 125 g ai/ha, preemergence, scale 0 (no effect) to 100 (complete control), read-out: Soybean plant response rating",98%
same,plant injury at 250 g/ha,"soybean; Glycine max, pre-emergence, 250 g ai/ha, preemergence, scale 0 (no effect) to 100 (complete control), read-out: Soybean plant response rating",98%
same,plant injury at 31 g/ha,"soybean; Glycine max, pre-emergence, Preemergence, 31 g ai/ha, scale 0 to 100, 0 no effect, 100 complete control, read-out: Plant response rating, Soybean",90%
same,pest or weed control at 62 g/ha,"barnyardgrass [3]; Echinochloa crus-galli, pre-emergence, 62 g ai/ha, preemergence, scale 0 (no effect) to 100 (complete control), read-out: Barnyardgrass plant response rating",100%
same,pest or weed control at 125 g/ha,"barnyardgrass [3]; Echinochloa crus-galli, pre-emergence, 125 g ai/ha, preemergence, scale 0 (no effect) to 100 (complete control), read-out: Barnyardgrass plant response rating",100%
same,pest or weed control at 250 g/ha,"barnyardgrass [3]; Echinochloa crus-galli, pre-emergence, 250 g ai/ha, preemergence, scale 0 (no effect) to 100 (complete control), read-out: Barnyardgrass plant response rating",100%
same,pest or weed control at 31 g/ha,"barnyardgrass [3]; Echinochloa crus-galli, pre-emergence, Preemergence, 31 g ai/ha, scale 0 to 100, 0 no effect, 100 complete control, read-out: Plant response rating, Barnyardgrass",98%
N#Cc1cn(-c2c(Br)cccc2Oc2ncc(Cl)cn2)nn1 [Compound 116],"Plant response rating, Barnyardgrass",barnyardgrass [1],0
same,"Plant response rating, Barnyardgrass",barnyardgrass [2]; [5],90
same,Morningglory plant response rating,morningglory; [6],100
same,Wheat plant response rating,wheat; [6],40
same,Velvetleaf plant response rating,velvetleaf; [6],100
same,"Plant response rating (0 to 100), Chickweed",chickweed; [7],40
same,"Plant response rating, Chickweed",chickweed; [8],80
same,"Plant response rating, Chickweed",chickweed; [9],55
same,"Plant response rating, Corn",corn; [5],60
same,"Crabgrass, Large plant response rating",large (Lg) crabgrass; [10],5
same,"Crabgrass, Large plant response rating",large (Lg) crabgrass; [11],100
same,"Crabgrass, Large plant response rating",large (Lg) crabgrass; [12],100
same,"Plant response rating, Crabgrass, Large",large (Lg) crabgrass; [13],100
same,Oilseed Rape plant response rating,oilseed rape; [10],0
same,Oilseed Rape plant response rating,oilseed rape; [11],98
same,Oilseed Rape plant response rating,oilseed rape; [12],100
same,"Plant response rating, Oilseed Rape",oilseed rape; [13],5
same,"Plant response rating (0 to 100), Oat, Wild",wild oat; [7],5
same,"Plant response rating, Oat, Wild",wild oat; [8],15
same,"Plant response rating, Oat, Wild",wild oat; [9],5
same,Galium plant response rating,galium; [10],0
same,Galium plant response rating,galium; [11],100
same,Galium plant response rating,galium; [12],100
same,"Plant response rating, Galium",galium; [13],100
same,"Ryegrass, Italian plant response rating",Italian ryegrass; [10],0
same,"Ryegrass, Italian plant response rating",Italian ryegrass; [11],10
same,"Ryegrass, Italian plant response rating",Italian ryegrass; [12],35
same,"Plant response rating, Ryegrass, Italian",Italian ryegrass; [13],0
same,Soybean plant response rating,soybean; [10],0
same,Soybean plant response rating,soybean; [11],40
same,Soybean plant response rating,soybean; [12],70
same,"Plant response rating, Soybean",soybean; [13],25
same,Barnyardgrass plant response rating,barnyardgrass [3]; [10],0
same,Barnyardgrass plant response rating,barnyardgrass [3]; [11],45
same,Barnyardgrass plant response rating,barnyardgrass [3]; [12],70
same,"Plant response rating, Barnyardgrass",barnyardgrass [3]; [13],25
